# Laboratory results from patent US8911717B2, “Polymalic acid-based multifunctional drug delivery system” (Cedars-Sinai Medical Center, priority 2003, dated 2014).
# Key:
# [1] = tested on: protein kinase CK2 α chain; test: Western blot of CK2 expression in cell lysates; format: cell-based, human; settings: U251MG glioma cells treated for 3 days; compared to untreated control or EPEI-treated control
# Method: The protein kinase CK2 complex is a tetramer comprised of catalytic α, α′ subunits and regulatory […] subunits that form complexes such as α2β2, αα′β2 and α′2β2. To achieve downregulation of CK2, the antisense oligonucleotides against the CK2 catalytic subunit a were conjugated to PMLA. Morpholino™-NH2 antisense oligonucleotides to the protein kinase CK2 catalytical domain a chain purchased from Gene Tools (USA) were as follows:
# Inhibition of CK2 expression in vitro was assessed in the cell lysates of cultured glioma cell line U251MG treated for 3 days with nanoconjugates containing Morpholino antisense oligonucleotides CK2a-1, CK2a-2 or CK2a-3.
# fresh human RBCs = test: red blood cell (RBC) hemolysis assay (membrane disruptive activity); format: cell-based; settings: pH 5.85 or pH 5.5; 2.5 nmol/10^8 RBCs; 1 h at 37° C.; absorbance of supernatant at 541 nm
# Method: The fresh human RBCs were isolated by centrifugation of whole human blood at 2000 g for 5 min. The RBCs were washed three times with cold 100 mM sodium phosphate buffer of the desired pH (pH 5.85 or pH 5.5). The final pellet was resuspended in the same buffer to give a solution with […] RBCs per 1 ml. The polymers were dissolved in 100 mM dibasic sodium phosphate buffer at the desired pH at a concentration of 10 mg/ml. The polymer concentration was 2.5 nmol/10^8 RBCs. Hemolysis in distilled water was used to produce 100% lysis. RBCs in buffer with no polymer was used as reference controls. The hemolysis assay was performed by adding the polymer solution to the suspended RBCs in 1 ml of the appropriate buffer. The RBCs were mixed by inverting the tube several times, and incubated for 1 h in a 37° C. water bath. After incubation, the RBCs were centrifuged for […] at 13,500×g to sediment intact cells and the lysis was determined by measuring the absorbance of the supernatants at 541 nm which reflects the amount of hemoglobin released by the RBCs. The relative increase 100(A-Ao)/Atotal in absorbance at 541 nm wavelength of the cell-free supernatant was measured as an indicator of membrane rupture. […]
Substance,"CK2 α chain expression, Western blot [1]",membrane disruptive activity (effect on RBC membranes) (fresh human RBCs)
"CK2a-1: PMLA nanoconjugate containing Morpholino antisense oligonucleotide CK2a-1, SEQ ID NO: 3, GATCTGGCAGTCACTGTGTTCAGAA (all phosphorodiamidate morpholino (PMO); amine-modified morpholino conjugated to polymalic acid nanoconjugate carrier, further chemistry not fully specified)",reduction,
"CK2a-2: PMLA nanoconjugate containing Morpholino antisense oligonucleotide CK2a-2, SEQ ID NO: 4, CCTGCTTGGCACGGGTCCCGACAT (all phosphorodiamidate morpholino (PMO); amine-modified morpholino conjugated to polymalic acid nanoconjugate carrier, further chemistry not fully specified)",reduction,
"CK2a-3: PMLA nanoconjugate containing Morpholino antisense oligonucleotide CK2a-3, SEQ ID NO: 5, CGGACAAAGCTGGACTTGATGTTT (all phosphorodiamidate morpholino (PMO); amine-modified morpholino conjugated to polymalic acid nanoconjugate carrier, further chemistry not fully specified)",reduction,
PMLA/L-valine/2-mercaptoethylamine/mPEG-NH2 conjugate [PMLA-PEG-Valine],,infer membrane destabilization
PMLA/mAB OX-26/morpholino antisense oligonucleotide/L-valine/2-mercaptoethylamine/mPEG-NH2 conjugate [PMLA-PEG-Valine-AS-mAB],,infer membrane destabilization
